pIC50: −log10 of the molar value. Where a SMILES comes first, the peptide text is derived from it.
Legend:
Format in all cases: binding
HLA B*0801 = HLA B*0801 (Homo sapiens, UniProt P01889, A93T/A95T/D138N/E176V/E187T/K202T/Q94N/R180D/S35A/V36M/Y33D/Y91F); test: biochemical
HLA A*3201 = HLA A*3201 (Homo sapiens, UniProt P04439, A270S/D101S/D185E/E176V/E277Q/F133L/G103R/G107R/G231S/H175R/I121M/I218V/I322F/K168Q/L105A/L300P/L318F/M331R/P208A/P217A/Q94H/R106L/R138Q/S129P/T104I/T323A/T345S/V100E/V321M/V358M); test: biochemical
HLA B*1501 = HLA B*1501 (Homo sapiens, UniProt P01889, A329T/A93T/A95T/C349S/D201E/D98Y/E187L/E204Q/E69M/E70A/K202T/N87E/Q94N/R155S/R180W/S121R/S35A/S48A/V306I/V36M/Y140S/Y91S); test: biochemical
HLA A*3001 = HLA A*3001 (Homo sapiens, UniProt P04439, D140H/D185E/E176W/F33S/G80R/H175R/K168Q/R138E/R41S); test: biochemical
HLA B*1503 = HLA B*1503 (Homo sapiens, UniProt P01889, A329T/A93T/A95T/C349S/D201E/D98Y/E187L/E204Q/K202T/N87E/Q94N/R155S/R180L/S121R/S35A/V306I/V36M/Y140S/Y91S); test: biochemical
HLA B*3501 = HLA B*3501 (Homo sapiens, UniProt P01889, A329T/A93T/A95T/C349S/D201E/D98Y/E176V/E187L/E204Q/E69T/I218V/K202T/L119I/Q94N/R155S/R180L/S121R/S35A/S48A/T118I/V127L/V306I/V36M/Y140S/Y91F)
HLA B*5301 = HLA B*5301 (Homo sapiens, UniProt P01889, A329T/A93T/A95T/C349S/D201E/D98Y/E176V/E187L/E204Q/E69T/G107R/I218V/K202T/L105A/L119I/N104I/Q94N/R106L/R155S/R180L/S101N/S121R/S35A/S48A/T118I/V127L/V306I/V36M/Y140S/Y91F)
HLA B*5401 = HLA B*5401 (Homo sapiens, UniProt P01889, A329T/C349S/D138N/D201E/E176V/E187T/E204Q/E69G/I76V/K202T/L119W/R155S/R180L/S121T/S35A/S48A/V127L/V306I/V36M/Y140L)
HLA A*6802 = HLA A*6802 (Homo sapiens, UniProt P04439, A269V/D140Y/D185E/E176V/E277Q/E87N/F33Y/G231S/I121R/I166T/I218V/L180W/L300P/L318F/N151K/P208A/P217A/Q86R/R138H/R169H/S129P/T345S/V36M)
HLA B*5101 = HLA B*5101 (Homo sapiens, UniProt P01889, A329T/A93T/A95T/C349S/D138N/D201E/D98Y/E187L/E204Q/E69T/G107R/I218V/K202T/L105A/L119W/N104I/Q94N/R106L/R155S/R180L/S101N/S121T/S35A/S48A/V306I/V36M/Y195H/Y91F)
H-2 K^k = H-2 K^k (Mus musculus, UniProt P04223)
Chain of H-2 K^k (P01887 21-119): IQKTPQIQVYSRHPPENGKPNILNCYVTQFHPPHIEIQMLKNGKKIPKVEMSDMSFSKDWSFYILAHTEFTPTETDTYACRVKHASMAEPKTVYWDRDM
Chain of H-2 K^k (P04223 22-369): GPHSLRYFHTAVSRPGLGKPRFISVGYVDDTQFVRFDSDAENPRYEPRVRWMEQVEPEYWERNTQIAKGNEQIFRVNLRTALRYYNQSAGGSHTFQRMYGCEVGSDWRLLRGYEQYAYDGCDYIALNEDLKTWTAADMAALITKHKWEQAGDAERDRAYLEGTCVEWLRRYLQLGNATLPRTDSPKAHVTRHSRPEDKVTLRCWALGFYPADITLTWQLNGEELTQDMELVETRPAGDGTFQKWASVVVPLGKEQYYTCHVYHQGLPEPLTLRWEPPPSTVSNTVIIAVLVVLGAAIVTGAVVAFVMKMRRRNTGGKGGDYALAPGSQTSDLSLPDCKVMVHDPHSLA

H-2 K^d = H-2 K^d (Mus musculus, UniProt P01902)
Chain of H-2 K^d (P01887 21-119): as the sequence (P01887 21-119) above
Chain of H-2 K^d (P01902 22-368): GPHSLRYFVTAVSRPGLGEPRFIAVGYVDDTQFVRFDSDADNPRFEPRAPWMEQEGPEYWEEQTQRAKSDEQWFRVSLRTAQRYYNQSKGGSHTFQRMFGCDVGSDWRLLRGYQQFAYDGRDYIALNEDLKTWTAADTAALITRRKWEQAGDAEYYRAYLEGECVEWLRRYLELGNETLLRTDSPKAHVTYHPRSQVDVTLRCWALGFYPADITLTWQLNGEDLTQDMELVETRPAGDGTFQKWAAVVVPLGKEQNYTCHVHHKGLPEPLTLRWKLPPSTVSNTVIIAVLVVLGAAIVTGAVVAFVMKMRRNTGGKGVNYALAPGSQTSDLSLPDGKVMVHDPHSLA

H-2 D^d = H-2 D^d (Mus musculus, UniProt P01900)
Chain of H-2 D^d (P01900 whole entry, looked up): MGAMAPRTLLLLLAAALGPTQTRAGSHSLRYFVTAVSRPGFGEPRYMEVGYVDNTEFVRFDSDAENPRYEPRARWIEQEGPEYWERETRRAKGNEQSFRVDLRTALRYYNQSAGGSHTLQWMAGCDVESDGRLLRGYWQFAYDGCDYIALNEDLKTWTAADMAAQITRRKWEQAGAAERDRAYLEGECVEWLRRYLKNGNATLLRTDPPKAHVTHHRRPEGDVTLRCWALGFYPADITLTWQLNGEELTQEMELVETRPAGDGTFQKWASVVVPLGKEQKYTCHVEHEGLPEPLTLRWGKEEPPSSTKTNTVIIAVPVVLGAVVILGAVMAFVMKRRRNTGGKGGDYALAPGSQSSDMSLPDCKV

HLA B*5801 = HLA B*5801 (Homo sapiens, UniProt P01889, A329T/C349S/D201E/D98Y/E176V/E187L/E204Q/E69T/G107R/I218V/I90N/K202T/L105A/L119I/N104I/N87E/Q89R/Q94S/R106L/R155S/R180L/R86G/S101N/S121R/S35A/S48A/T118I/V127L/V306I/V36M/Y140S/Y91M)
H-2 D^b = H-2 D^b (Mus musculus, UniProt P01899)
Chain of H-2 D^b (P01887 21-119): as the sequence (P01887 21-119) above
Chain of H-2 D^b (P01899 25-362): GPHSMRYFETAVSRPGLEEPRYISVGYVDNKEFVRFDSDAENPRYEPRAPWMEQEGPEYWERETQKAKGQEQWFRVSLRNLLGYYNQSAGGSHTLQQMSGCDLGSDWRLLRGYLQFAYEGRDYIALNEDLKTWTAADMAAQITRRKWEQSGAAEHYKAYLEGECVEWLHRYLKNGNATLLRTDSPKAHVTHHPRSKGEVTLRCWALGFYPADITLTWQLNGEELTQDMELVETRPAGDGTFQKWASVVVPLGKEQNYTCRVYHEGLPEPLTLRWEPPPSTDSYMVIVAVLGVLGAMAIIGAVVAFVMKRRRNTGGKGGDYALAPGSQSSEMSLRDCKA

HLA B*5802 = HLA B*5802 (Homo sapiens, UniProt P01889, A329T/C349S/D201E/D98Y/E176V/E187L/E204Q/E69T/G107R/I218V/I90N/K202T/L105A/N104I/N87E/Q89R/Q94S/R106L/R155S/R180L/R86G/S101N/S121W/S35A/S48A/V127L/V306I/V36M/Y140S/Y91M)

Row | Compound | pIC50 (HLA B*0801) | pIC50 (HLA A*3201) | pIC50 (HLA B*1501) | Normalized average relative binding affinity(ARB) (HLA B*0801) | Normalized average relative binding affinity(ARB) (HLA B*3501) | Normalized average relative binding affinity(ARB) (HLA B*5301) | Normalized average relative binding affinity(ARB) (HLA B*5401) | Normalized average relative binding affinity(ARB) (HLA A*6802) | Normalized average relative binding affinity(ARB) (HLA A*3201) | Normalized average relative binding affinity(ARB) (HLA B*5101) | Normalized average relative binding affinity(ARB) (H-2 K^k) | Normalized average relative binding affinity(ARB) (H-2 K^d) | Normalized average relative binding affinity(ARB) (HLA B*1503) | Normalized average relative binding affinity(ARB) (HLA B*1501) | Normalized average relative binding affinity(ARB) (H-2 D^d) | Normalized average relative binding affinity(ARB) (HLA B*5801) | Normalized average relative binding affinity(ARB) (HLA A*3001) | Normalized average relative binding affinity(ARB) (H-2 D^b) | Normalized average relative binding affinity(ARB) (HLA B*5802) | other results
1 | CSCC[C@H](NC(=O)[C@@H](NC(=O)[C@@H](N)CCCCN)[C@@H](C)O)C(=O)N[C@@H](C)C(=O)N[C@H](C(=O)N[C@H](C(=O)N[C@@H](Cc1ccc(O)cc1)C(=O)N[C@@H](CCC(=O)O)C(=O)N[C@@H](CC(C)C)C(=O)O)[C@@H](C)O)C(C)C [3102.0293] (H-KTMAVTYEL-OH) | 7.72 | 9.24 | 8.26 | – | – | – | – | – | – | – | – | – | – | – | – | – | – | – | – | –
2 | CC(C)C[C@H](NC(=O)[C@H](CCCCN)NC(=O)[C@H](CCCCN)NC(=O)[C@H](Cc1ccc(O)cc1)NC(=O)[C@H](CC(C)C)NC(=O)[C@@H](NC(=O)[C@@H](N)Cc1ccc(O)cc1)[C@@H](C)O)C(=O)N[C@@H](CO)C(=O)N[C@@H](Cc1ccccc1)C(=O)O [3102.0333] (H-YTLYKKLSF-OH) | 7.80 | 6.71 | 7.85 | – | – | – | – | – | – | – | – | – | – | – | – | – | – | – | – | pIC50 (HLA A*3001): 7.64
3 | CC[C@H](C)[C@H](NC(=O)[C@H](CO)NC(=O)[C@H](C)NC(=O)[C@@H](NC(=O)[C@@H](NC(=O)[C@H](CC(N)=O)NC(=O)[C@H](CCCNC(=N)N)NC(=O)[C@@H](NC(=O)[C@@H](N)CCCNC(=N)N)C(C)C)[C@@H](C)CC)[C@@H](C)CC)C(=O)O [3102.0367] (H-RVRNIIASI-OH) | 7.66 | 9.00 | – | – | – | – | – | – | – | – | – | – | – | – | – | – | – | – | – | pIC50 (HLA A*3001): 10.00
4 | CC(C)C[C@H](NC(=O)[C@H](CC(C)C)NC(=O)[C@@H](N)CCCCN)C(=O)N[C@@H](CO)C(=O)N[C@@H](Cc1c[nH]cn1)C(=O)N[C@@H](Cc1ccccc1)C(=O)N[C@@H](Cc1ccc(O)cc1)C(=O)N1CCC[C@H]1C(=O)N[C@@H](C)C(=O)O [3102.0665] (H-KLLSHFYPA-OH) | 7.09 | 6.89 | 7.41 | – | – | – | – | – | – | – | – | – | – | – | – | – | – | – | – | pIC50 (HLA B*1503): 8.27
5 | CC(C)C[C@H](NC(=O)[C@@H]1CCCN1C(=O)[C@H](CO)NC(=O)[C@H](Cc1ccccc1)NC(=O)[C@H](Cc1ccc(O)cc1)NC(=O)[C@H](CCCCN)NC(=O)[C@H](C)NC(=O)[C@@H](NC(=O)[C@H](C)N)C(C)C)C(=O)O [3102.0978] (H-AVAKYFSPL-OH) | 6.72 | 6.55 | 7.80 | – | – | – | – | – | – | – | – | – | – | – | – | – | – | – | – | –
6 | CC(C)C[C@H](NC(=O)[C@@H](N)CC(C)C)C(=O)N[C@@H](Cc1ccccc1)C(=O)N[C@@H](Cc1ccc(O)cc1)C(=O)N[C@H](C(=O)N[C@@H](CCCNC(=N)N)C(=O)N[C@@H](Cc1c[nH]cn1)C(=O)N[C@@H](CCCNC(=N)N)C(=O)N[C@@H](Cc1ccccc1)C(=O)O)[C@@H](C)O [3102.1058] (H-LLFYTRHRF-OH) | 7.34 | 8.59 | 9.07 | – | – | – | – | – | – | – | – | – | – | – | – | – | – | – | – | pIC50 (HLA B*1503): 9.68
7 | XXXEXXXXX [3064.0064] | – | – | – | 0.24 | 0.087 | 0.24 | 0.15 | 0.14 | 0.36 | 0.46 | 0.41 | 0.18 | 0.25 | 0.27 | 0.38 | 0.21 | 0.34 | 0.35 | 0.18 | –
8 | XXXFXXXXX [3064.0065] | – | – | – | 0.55 | 0.10 | 0.21 | 0.31 | 0.74 | 1.0 | 0.64 | 0.38 | 0.098 | 0.41 | 0.42 | 0.96 | 0.31 | 1.0 | 0.38 | 0.45 | –
9 | XXXGXXXXX [3064.0066] | – | – | – | 0.063 | 0.17 | 0.18 | 0.062 | 0.26 | 0.33 | 0.47 | 0.19 | 0.14 | 0.19 | 0.23 | 0.17 | 0.21 | 0.50 | 0.088 | 0.15 | –
10 | XXXHXXXXX [3064.0067] | – | – | – | 0.26 | 0.16 | 0.089 | 0.21 | 0.30 | 0.32 | 0.18 | 0.13 | 0.22 | 0.29 | 0.19 | 0.53 | 0.40 | 0.45 | 0.29 | 0.32 | –
11 | XXXIXXXXX [3064.0068] | – | – | – | 0.38 | 1.0 | 0.18 | 0.16 | 0.088 | 0.15 | 1.0 | 0.39 | 0.22 | 0.26 | 0.27 | 0.79 | 0.23 | 0.34 | 0.87 | 0.33 | –

— paper PMC2248166, “Quantitative peptide binding motifs for 19 human and mouse MHC class I molecules derived using positional scanning combinatorial peptide libraries” (Immunome Research, 2008)
